This is an account of results in patent US10201532B2, “Compounds and their use” (ALLECRA THERAPEUTICS GMBH, priority 2010, dated 2019).

Assay [1] concerns KPC-2 producing K. pneumoniae (ATCC BAA-1705). As to the kind of experiment: Synergistic broth micro-dilution MIC (checkerboard). Format: cell-based, Klebsiella pneumoniae. The following applies: ATCC BAA-1705; for MIC: Klebsiella pneumoniae, ATCCBAA1705, no BLI, read-out: MIC of antibiotic alone (no BLI). (In general: In broth dilution the organism is exposed to a series of concentrations in liquid medium.)

For assay [2], the system named is KPC-3 expressing E. coli (J53 R6206). The description is as above. It is filed as cell-based, Escherichia coli.
The test system is the same in assay [3]. Description: microbe, parasite or virus in culture. Format: cell-based, Escherichia coli. Particulars: no BLI; E. coli J53 R6206. Here is the method: The β-lactam compound was tested for in vitro antibacterial activities by the broth micro-dilution or agar dilution method as specified in documents published by Clinical and Laboratory Standards Institute (CLSI), USA (formerly NCCLS). Approved standard M7-A7, January 2006, CLSI, Wayne, Pa., USA and M100-S18, January 2008, CLSI, Wayne, Pa., USA.
In agar dilution method briefly, stock solutions of the cephalosporins for veterinary use (e.g. 2 mg/mL) was made in water, 0.1M phosphate buffers or appropriate solvents and the solution was serially two fold diluted. Compound-1 was dissolved in water and Tazobactam (comparator BLI) in 0.1M phosphate buffer, pH 6.0 to get a solution of 1 mg/mL. Cephalosporins were screened in a concentration range of 0.5-32 μg/mL. For combination, Tazobactam or the Compound-1 described herein were tested at a fixed concentration of 4 μg/mL along with the cephalosporins concentration ranging from 0.5 to 32 μg/mL. […] The compound of formula (I) and Tazobactam were also tested individually. The bacterial inoculum was prepared by picking 3 to 5 well isolated bacterial colonies with the same morphological appearance from an 18-24 h old culture and adjusting the turbidity of the saline suspension to 0.5 McFarland turbidity standard equivalent to a bacterial population of ˜1×10^8 CFU per mL of suspension. The suspension was diluted 1:10 in saline to get a bacterial population of ˜1×10^7 CFU/mL as inoculum. This bacterial inoculum was inoculated onto the prepared petri dishes by a multipoint inoculator with each inoculum spot containing ˜1×10^4 CFU of the bacterial strain. The inoculated petri dishes were incubated at 35° C. in an ambient atmosphere for 18-20 h.

For the next assay, the system named is E. coli Ecoli233 (KPC3). As to the kind of experiment: Synergistic broth micro-dilution MIC. Format: cell-based, Escherichia coli.

Broadly, the MIC is the lowest concentration found to suppress growth.

For the compound `CCOC(=O)CNC(=O)C[n+]1ccn(C[C@@]2(C)[C@H](C(=O)O)N3C(=O)C[C@H]3S2(=O)=O)n1` [Compound-8, 1-{[(2S,3S,5R)-2-Carboxy-3-methyl-4,4,7-trioxo-4-thia-1-azabicyclo[3.2.0]hept-3-yl]methyl}-3-{2[(2-ethoxy-2-oxoethyl)amino]-2-oxoethyl}-1H-1,2,3-triazol-3-ium], the “MIC of BLI alone” value in assay [1] and in assay [2] was >16 µg/mL throughout. In addition, the “MIC of Imipenem in combination with BLI” value in assay [1] (BLI at 4 μg/mL) was 8 µg/mL; in assay [1] (BLI at 16 μg/mL) it was 4 µg/mL; in assay [2] (BLI at 4 μg/mL), 1 µg/mL; in assay [2] (BLI at 16 μg/mL), 0.25 µg/mL. Besides, the “MIC of Meropenem in combination with BLI” value in assay [1] (BLI at 4 μg/mL) is 8 µg/mL; in assay [1] (BLI at 16 μg/mL), 4 µg/mL; in assay [2] (BLI at 4 μg/mL), 0.25 µg/mL; in assay [2] (BLI at 16 μg/mL), <0.125 µg/mL.
Consider `CO/N=C(\C(=O)N[C@@H]1C(=O)N2C(C(=O)O)=C(COC(C)=O)CS[C@H]12)c1csc(N)n1` [Cefotaxime], for which, in assay [1], the MIC is > 128 µg/mL. Besides, the “MIC of antibiotic alone (no BLI)” value in assay [2] was >32 µg/mL.
In the case of `NC(=O)c1cc[n+](CC2=C(C(=O)[O-])N3C(=O)[C@@H](NC(=O)Cc4cccs4)[C@H]3SC2)cc1` [Cefalonium], the minimal inhibitory concentration (MIC) in assay [1] is > 64 µg/mL. Also, in assay [3], the “MIC of veterinary cephalosporin alone (no BLI)” value is 32 µg/mL.
`CO/N=C(\C(=O)N[C@@H]1C(=O)N2C(C(=O)[O-])=C(C[n+]3cccc4c3CCCC4)CS[C@H]12)c1csc(N)n1` [Cefquinome]: the “MIC of antibiotic alone (no BLI)” value in assay [1] (no BLI) is >64 µg/mL. The “MIC of veterinary cephalosporin alone (no BLI)” value in assay [3] was determined as 16 µg/mL.
Regarding `C=CC[n+]1ccn(C[C@@]2(C)[C@H](C(=O)O)N3C(=O)C[C@H]3S2(=O)=O)n1` [Compound-4, 1-{[(2S,3S,5R)-2-Carboxy-3-methyl-4,4,7-trioxo-4-thia-1-azabicyclo[3.2.0]hept-3-yl]methyl}-3-allyl-1H-1,2,3-triazol-3-ium], the “MIC of BLI alone” value in assay [1] and in assay [2] was >16 µg/mL each time. Also, the “MIC of Imipenem in combination with BLI” value in assay [1] (BLI at 4 μg/mL) came to 4 µg/mL; in assay [1] (BLI at 16 μg/mL) it was 1 µg/mL; in assay [2] (BLI at 4 μg/mL), 0.5 µg/mL; in assay [2] (BLI at 16 μg/mL), 0.25 µg/mL. Also, the “MIC of Meropenem in combination with BLI” value in assay [1] (BLI at 4 μg/mL) was 8 µg/mL; in assay [1] (BLI at 16 μg/mL), 4 µg/mL; in assay [2] (BLI at 4 μg/mL) it was <0.125 µg/mL; in assay [2] (BLI at 16 μg/mL), <0.125 µg/mL.
As for `C[C@@H](O)[C@H]1C(=O)N2C(C(=O)O)=C([C@H]3CCCO3)S[C@H]12` [Faropenem], the minimum inhibitory concentration (MIC) in assay [1] was > 64 µg/mL.
As to `Nc1nc(/C(=N/O)C(=O)N[C@@H]2C(=O)N3C(C(=O)O)=C(/C=C4\CCN([C@@H]5CCNC5)C4=O)CS[C@H]23)ns1` [Ceftobiprole], in assay [1], the minimum inhibitory concentration (MIC) is > 64 µg/mL. Further, in assay [2], the “MIC of antibiotic alone (no BLI)” value is >32 µg/mL.
As to `CO/N=C(\C(=O)N[C@@H]1C(=O)N2C(C(=O)O)=C(CSC(=O)c3ccco3)CS[C@H]12)c1csc(N)n1` [Ceftiofur], in assay [1], the MIC is > 64 µg/mL. The “MIC of veterinary cephalosporin alone (no BLI)” value in assay [3] was 16 µg/mL.
On to `C[C@]1(Cn2cc[n+](CC(N)=O)n2)[C@H](C(=O)O)N2C(=O)C[C@H]2S1(=O)=O` [Compound-5, 1-{[(2S,3S,5R)-2-Carboxy-3-methyl-4,4,7-trioxo-4-thia-1-azabicyclo[3.2.0]hept-3-yl]methyl}-3-(2-amino-2-oxoethyl)-1H-1,2,3-triazol-3-ium], for which the “MIC of BLI alone” value in assay [1] and in assay [2] was >16 µg/mL in each case. In addition, the “MIC of Imipenem in combination with BLI” value came to 8 µg/mL in assay [1] (BLI at 4 μg/mL), 1 µg/mL in assay [1] (BLI at 16 μg/mL), 0.5 µg/mL in assay [2] (BLI at 4 μg/mL) and 0.25 µg/mL in assay [2] (BLI at 16 μg/mL). Further, the “MIC of Meropenem in combination with BLI” value was 8 µg/mL in assay [1] (BLI at 4 μg/mL), 2 µg/mL in assay [1] (BLI at 16 μg/mL), <0.125 µg/mL in assay [2] (BLI at 4 μg/mL) and <0.125 µg/mL in assay [2] (BLI at 16 μg/mL).
Turning to `C[C@@H](O)[C@H]1C(=O)N2C(C(=O)O)=C(S[C@@H]3CN[C@H](C(=O)N(C)C)C3)[C@H](C)[C@H]12` [Meropenem], the minimal inhibitory concentration (MIC) in assay [1] is 32 to 64 µg/mL. The “MIC of antibiotic alone (no BLI)” value in assay [2] fell in the range of 2 to 4 µg/mL.
Regarding `Cc1cn(C[C@@]2(C)[C@H](C(=O)[O-])N3C(=O)C[C@H]3S2(=O)=O)c[n+]1C` [Compound-13, (2S,3S,5R)-3-Methyl-3-(4-methyl-3-methyl-imidazol-3-ium-1-ylmethyl)-4,4,7-trioxo-4-thia-1-aza-bicyclo[3.2.0]heptane-2-carboxylate], the “MIC of Imipenem in combination with BLI” value is 2 µg/mL in assay [1] (BLI at 4 μg/mL), 2 µg/mL in assay [1] (BLI at 16 μg/mL), 8 µg/mL in the assay on E. coli Ecoli233 (KPC3) (BLI at 4 μg/mL) and 1 µg/mL in the assay on E. coli Ecoli233 (KPC3) (BLI at 16 μg/mL).
Turning to `CO/N=C(\C(=O)N[C@@H]1C(=O)N2C(C(=O)[O-])=C(C[N+]3(C)CCCC3)CS[C@H]12)c1csc(N)n1` [Cefepime], the MIC in assay [1] was > 128 µg/mL. Besides, the “MIC of antibiotic alone (no BLI)” value in assay [2] is >16 µg/mL.
Regarding `CC1=C(C(=O)O)N2C(=O)[C@@H](NC(=O)[C@H](N)c3ccc(O)cc3)[C@H]2SC1` [Cefadroxil], the MIC in assay [1] is > 64 µg/mL. Further, the “MIC of veterinary cephalosporin alone (no BLI)” value in assay [3] was >32 µg/mL.
`CC(C)(C)OC(=O)C[n+]1ccn(C[C@@]2(C)[C@H](C(=O)O)N3C(=O)C[C@H]3S2(=O)=O)n1` [Compound-6, 1-{[(2S,3S,5R)-2-Carboxy-3-methyl-4,4,7-trioxo-4-thia-1-azabicyclo[3.2.0]hept-3-yl]methyl}-3-(2-t-butoxy-2-oxoethyl)-1H-1,2,3-triazol-3-ium]: the “MIC of BLI alone” value in assay [1] and in assay [2] was >16 µg/mL in each case. Also, the “MIC of Imipenem in combination with BLI” value in assay [1] (BLI at 4 μg/mL) was found to be 8 µg/mL; in assay [1] (BLI at 16 μg/mL), 8 µg/mL; in assay [2] (BLI at 4 μg/mL), 1 µg/mL; in assay [2] (BLI at 16 μg/mL), 0.5 µg/mL. Further, the “MIC of Meropenem in combination with BLI” value in assay [1] (BLI at 4 μg/mL) is 16 µg/mL; in assay [1] (BLI at 16 μg/mL) it was 4 µg/mL; in assay [2] (BLI at 4 μg/mL), 0.5 µg/mL; in assay [2] (BLI at 16 μg/mL), <0.125 µg/mL.
In the case of `CC[n+]1ccn(C[C@@]2(C)[C@H](C(=O)O)N3C(=O)C[C@H]3S2(=O)=O)n1` [Compound-2, 1-{[(2S,3S,5R)-2-Carboxy-3-methyl-4,4,7-trioxo-4-thia-1-azabicyclo[3.2.0]hept-3-yl]methyl}-3-ethyl-1H-1,2,3-triazol-3-ium], the “MIC of BLI alone” value in assay [1] and in assay [2] was >16 µg/mL throughout. For the same compound, the “MIC of Imipenem in combination with BLI” value in assay [1] (BLI at 4 μg/mL) turned out to be 4 µg/mL; in assay [1] (BLI at 16 μg/mL), 1 µg/mL; in assay [2] (BLI at 4 μg/mL), 0.5 µg/mL; in assay [2] (BLI at 16 μg/mL), 0.25 µg/mL. For the same compound, the “MIC of Meropenem in combination with BLI” value in assay [1] (BLI at 4 μg/mL) was 8 µg/mL; in assay [1] (BLI at 16 μg/mL), 2 µg/mL; in assay [2] (BLI at 4 μg/mL), <0.125 µg/mL; in assay [2] (BLI at 16 μg/mL) it was <0.125 µg/mL.
Consider `C[C@@H](O)[C@H]1C(=O)N2C(C(=O)O)=C(S[C@@H]3CN[C@H](C(=O)Nc4cccc(C(=O)O)c4)C3)[C@H](C)[C@H]12` [Ertapenem], for which the MIC in assay [1] is > 64 µg/mL.
